Patent publication US20140303145A1, “PHARMACEUTICAL COMPOSITION COMPRISING A POORLY WATER-SOLUBLE ACTIVE INGREDIENT, A SURFACTANT AND A WATER-SOLUBLE POLYMER” (NOVARTIS AG, priority 2001, published 2014)

What was measured:
Type in all cases: physicochemical
[1] = Water solubility of PKC412
Protocol: (water solubility: <0.1 mg/l), which is referred to hereinafter as PKC412.

[2] = Dissolution behaviour of capsules (Paddle method USP XXIV, SIFmod); conditions: based on a 25 mg dosage; 1 litre SIFmod pH 6.8; capsule test
Protocol: (§1) The medium used for the dissolution behaviour test is 1 litre of a surfactant-free, modified medium according to “Intestinal Fluid, Simulated, TS” from USP XXIV (SIFmod). KH2PO4 is replaced by NaH2PO4. Pancreatin is not added (pH 6.8).
The dissolution test is carried out according to the “Paddle method” of USP XXIV at 37° C. and at a stirring rate of 50 rpm with a Sotax AT6 (Sotax, Basle, Switzerland). The capsules are placed in a teflon-coated sinker (ATN, Pfaffenheim, France), in order to allow them to remain on the bottom of the dissolution container.
The average amounts of active ingredient released from each of 3 capsules of 25 mg PKC412 according to examples C1 and C2 are given in Table 7 as a percentage of the theoretical content.

[3] = Dissolution behaviour of tablets (Paddle method USP XXIV, SIFmod); conditions: based on a 25 mg dosage; 1 litre SIFmod pH 6.8; tablet test
Protocol: as §1
The dissolution test is carried out according to the “Paddle method” of USP XXIV at 37° C. and at a stirring rate of 50 rpm with a Sotax AT6 (Sotax, Basle, Switzerland). The tablets were added and the amounts of active ingredient released were analysed.
The average amounts of active ingredient released from each of 3 tablets of 25 mg PKC412 according to examples C4-C6 are given in Table 8 as a percentage of the theoretical content.

CO[C@@H]1[C@H](N(C)C(=O)c2ccccc2)C[C@H]2O[C@]1(C)n1c3ccccc3c3c4c(c5c6ccccc6n2c5c31)C(=O)NC4 [PKC412]
solubility [1]: < 0.1 µg/mL | comparable solubility of untreated PKC412 [2]: < 0.4 % of the theoretical content | comparable solubility of untreated PKC412 [3]: < 0.4 % of the theoretical content
